Data as given in US7863308B2, “Substituted thiophenes” (Auspex Pharmaceuticals, Inc., priority 2007, dated 2011).

Assays:
[1] = target: CYP2C9 (Homo sapiens, UniProt P11712); assay: In vitro inhibition of human cytochrome P450 enzymes: CYP2C9 (dibenzylfluorescein fluorometric assay)
Procedure: (§1) In Vitro Inhibition of Human Cytochrome P45 Enzymes
(§2) Solution A: NADPH-Regenerating System
(§3) To a glass tube on ice were added sequentially: Water (8 mL) in NADP+ (20 mg), glucose-6-phosphate (20 mg), magnesium chloride hexahydrate (13.3 mg) and glucose-6-phosphate dehydrogenase (60 units).
To a glass tube on ice were added sequentially: 0.5 M KH2PO4 (pH 7.4, 2.4 mL), water (8.988 mL), CYP2C9 (600 μL of 1 picomol/microliter), and dibenzylfluorescein (2 mM in 100% acetonitrile, 12 microliter).
(§4) Solution A was transferred to a 96-well black plate (80 microliter per well), followed by various concentrations of a solution of Compound in 10% acetonitrile-water (20 microliter per well). The reaction was initiated by adding 100 microliter of solution B to each well of the 96-well plate. The plate was incubated for 40 minutes at 37° C. in the dark. The reaction was stopped by adding 75 microliters of stop buffer (2 N NaOH) to each well, and incubating at 37° C. for 2 hours. The end point was measured in a fluorometer plate reader at λex=485 nm and λem=538 nm.

[2] = target: CYP3A4 (Homo sapiens, UniProt P08684); conditions: 10 min, pH 7.4
CYP3A4, sequence (P08684 whole entry): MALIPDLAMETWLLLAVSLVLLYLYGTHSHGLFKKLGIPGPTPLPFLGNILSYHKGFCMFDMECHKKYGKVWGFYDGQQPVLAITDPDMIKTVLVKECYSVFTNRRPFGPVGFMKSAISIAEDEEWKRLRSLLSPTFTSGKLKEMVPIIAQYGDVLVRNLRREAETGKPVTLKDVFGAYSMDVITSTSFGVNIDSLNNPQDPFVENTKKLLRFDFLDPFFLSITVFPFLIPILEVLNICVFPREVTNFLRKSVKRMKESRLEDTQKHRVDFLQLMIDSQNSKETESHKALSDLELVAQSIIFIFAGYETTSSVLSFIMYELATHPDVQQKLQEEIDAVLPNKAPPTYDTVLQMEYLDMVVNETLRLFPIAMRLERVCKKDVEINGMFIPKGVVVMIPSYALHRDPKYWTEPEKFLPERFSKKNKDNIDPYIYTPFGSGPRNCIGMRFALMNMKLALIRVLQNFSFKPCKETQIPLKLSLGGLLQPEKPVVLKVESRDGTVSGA
Procedure: as §1, §2, §3
To a glass tube on ice were added sequentially: 0.5 M KH2PO4 (pH 7.4, 9.6 mL), water (2.328 mL), CYP3A4 (60 μL of 1 picomol/microliter), and dibenzylfluorescein (2 mM in 100% acetonitrile, 12 microliter).
as §4, with “20%” for “10%”, “10” for “40”, “The reaction was stopped by adding 75 microliters of stop buffer (2 N NaOH) to each well, and incubating at 37° C. for 2 hours.” left out

CYP2C9, sequence (P11712 whole entry): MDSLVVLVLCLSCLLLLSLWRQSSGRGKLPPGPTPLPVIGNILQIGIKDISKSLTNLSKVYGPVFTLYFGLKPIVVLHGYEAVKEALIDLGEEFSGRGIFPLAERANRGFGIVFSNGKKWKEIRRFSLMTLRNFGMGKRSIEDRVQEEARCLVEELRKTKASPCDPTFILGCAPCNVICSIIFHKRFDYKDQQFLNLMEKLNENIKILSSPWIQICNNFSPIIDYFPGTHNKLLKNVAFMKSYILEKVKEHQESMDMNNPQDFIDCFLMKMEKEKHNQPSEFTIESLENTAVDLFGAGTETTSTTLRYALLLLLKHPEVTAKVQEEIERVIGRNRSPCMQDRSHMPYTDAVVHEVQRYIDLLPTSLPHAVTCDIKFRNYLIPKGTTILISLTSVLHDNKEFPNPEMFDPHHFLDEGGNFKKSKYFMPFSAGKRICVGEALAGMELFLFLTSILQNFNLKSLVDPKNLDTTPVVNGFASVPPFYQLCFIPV

| IC50 [1] [µM] | times the amount of deuterated compound to inhibit CYP2C9 as compared to the non-isotopically enriched drug ([1]; human, 40 min, pH 7.4) [times] | times the amount of deuterated compound to inhibit CYP3A4 as compared to the non-isotopically enriched drug [2] [times] | SMILES |
| --- | --- | --- | --- |
| 0.32 | 3.2 | 2.3 | [2H]C1([2H])Oc2cc(C)c(CC(=O)c3sccc3S(=O)(=O)Nc3onc(C)c3Cl)cc2O1 [Example 2, d2-2-[2-(6-Methyl-benzo[1,3]dioxol-5-yl)-acetyl]-thiophene-3-sulfonic acid (4-chloro-3-methyl-isoxazol-5-yl)-amide] |
| 0.1 |  |  | Cc1cc2c(cc1CC(=O)c1sccc1S(=O)(=O)Nc1onc(C)c1Cl)OCO2 [sixtaxsentan, 2-[2-(6-Methyl-benzo[1,3]dioxol-5-yl)-acetyl]-thiophene-3-sulfonic acid (4-chloro-3-methyl-isoxazol-5-yl)-amide, reference compound] |
